“And” between values parts separate entries of the source, which are not always exact repeats. Identical values can stand only once. “Also recorded” adds a separate entry of the source.
Assays:
[1] = Erythema after PDT, recorded photographically; format: in vivo, human; details: 1-4 days after PDT; majority of patients
Procedure: (§1) Several secondary endpoints were also measured. For pain assessment, patients were asked every 5 to 10 min during illumination to report their pain on a 0 to 10 visual-analog (VAS) scale. Erythema was recorded photographically at Day 1 and on Day 4 post PDT. A side effect profile was recorded by each patient in a daily home questionnaire to document the presence or absence of eleven different signs and symptoms in the 4 days immediately following PDT (see Table 2).

[2] = tested on: actinic keratoses (AK) lesions of face and scalp; experiment: AK lesion clearance, bilaterally controlled randomized clinical trial of ALA blue light PDT
[3] = Pain during blue light illumination (0 to 10 VAS); format: in vivo, human; details: for Pain score (0-to-10 VAS) during illumination / Pain score (0-to-10 VAS) during illumination, Mean: individual patients; for Pain score (0-to-10 VAS) during illumination, Mean: mean over time points; for Mean VAS pain score during illumination: all 23 patients, linear mixed-effect model, 0-10 scale
Procedure: The term “Visual Analogue Scale for Pain (referred to as VAS pain score hereafter) as used herein, is defined as follows: An 11-point numerical pain scale wherein patients report a number (from 0 to 10) that most closely reflects the level of pain they are experiencing at that particular moment; 0 corresponds to no pain and 10 corresponds to the worst pain imaginable (Breivik, HaraldScandinavian Journal of Pain 2016; 11:150-152).
as §1
The primary endpoint was AK lesion reduction. […] Statistical significance was considered with a p-value <0.05.

[4] = Daily home questionnaire of side effects, first 4 days after PDT; format: in vivo, human; details: Side A (test PDT)
Procedure: as §1

Spotty erythema (inflamed AK lesions), Side A versus Side B [1]: approximately equal on Side A and Side B
Pain score (0-to-10 VAS) during illumination ([3]; SIDE A (test PDT), 10 min during illumination, 30 min test PDT cohort): 0 (3×) and 2 and 3 and 1
Pain score (0-to-10 VAS) during illumination ([3]; SIDE A (test PDT), 10 min during illumination, 45 min test PDT cohort): 0 (5×) and 1 (3×)
Pain score (0-to-10 VAS) during illumination ([3]; SIDE A (test PDT), 10 min during illumination, 60 min test PDT cohort): 0
Pain score (0-to-10 VAS) during illumination ([3]; SIDE A (test PDT), 20 min during illumination, 30 min test PDT cohort): 0 (2×) and 2 and 5 and 1 (2×)
Pain score (0-to-10 VAS) during illumination ([3]; SIDE A (test PDT), 20 min during illumination, 45 min test PDT cohort): 0 (6×) and 1 (2×)
Pain score (0-to-10 VAS) during illumination ([3]; SIDE A (test PDT), 20 min during illumination, 60 min test PDT cohort): 0
Pain score (0-to-10 VAS) during illumination ([3]; SIDE A (test PDT), 30 min during illumination, 30 min test PDT cohort): 0 (2×) and 2 and 6 and 1 (2×)
Pain score (0-to-10 VAS) during illumination ([3]; SIDE A (test PDT), 30 min during illumination, 45 min test PDT cohort): 0 (7×) and 1
Pain score (0-to-10 VAS) during illumination ([3]; SIDE A (test PDT), 30 min during illumination, 60 min test PDT cohort): 0
Pain score (0-to-10 VAS) during illumination ([3]; SIDE A (test PDT), 40 min during illumination, 45 min test PDT cohort): 0 (6×) and 1 (2×)
Pain score (0-to-10 VAS) during illumination ([3]; SIDE A (test PDT), 40 min during illumination, 60 min test PDT cohort): 0
Pain score (0-to-10 VAS) during illumination ([3]; SIDE A (test PDT), 50 min during illumination): 0
Pain score (0-to-10 VAS) during illumination, Mean ([3]; SIDE A (test PDT), 30 min test PDT cohort): 0.0 (3×) and 2.0 and 4.7 and 0.7 and 1.0
Pain score (0-to-10 VAS) during illumination, Mean ([3]; SIDE A (test PDT), 45 min test PDT cohort): 0.0 (4×) and 0.3 (2×) and 1.0 and 0.5
Pain score (0-to-10 VAS) during illumination, Mean ([3]; SIDE A (test PDT), 60 min test PDT cohort): 0.0 (5×) and 0.8 (2×) and 0.2
Pain score (0-to-10 VAS) during illumination ([3]; SIDE B (control PDT), 5 min during illumination, 30 min test PDT cohort): 2 and 10 (2×) and 4 and 5 and 3
Pain score (0-to-10 VAS) during illumination ([3]; SIDE B (control PDT), 5 min during illumination, 45 min test PDT cohort): 8 and 4 (3×) and 3 and 2 and 5 and 1
Pain score (0-to-10 VAS) during illumination ([3]; SIDE B (control PDT), 5 min during illumination, 60 min test PDT cohort): 1
Pain score (0-to-10 VAS) during illumination ([3]; SIDE B (control PDT), 10 min during illumination, 30 min test PDT cohort): 1 and 7 and 5 and 4 and 3 (2×)
Pain score (0-to-10 VAS) during illumination ([3]; SIDE B (control PDT), 10 min during illumination, 45 min test PDT cohort): 3 (3×) and 2 and 4 and 5 (2×) and 1
Pain score (0-to-10 VAS) during illumination ([3]; SIDE B (control PDT), 10 min during illumination, 60 min test PDT cohort): 1
Pain score (0-to-10 VAS) during illumination ([3]; SIDE B (control PDT), 15 min during illumination, 30 min test PDT cohort): 0 and 5 and 6 and 4 and 1 and 3
Pain score (0-to-10 VAS) during illumination ([3]; SIDE B (control PDT), 15 min during illumination, 45 min test PDT cohort): 0 and 2 (3×) and 1 and 3 and 4 and 5
Pain score (0-to-10 VAS) during illumination ([3]; SIDE B (control PDT), 15 min during illumination, 60 min test PDT cohort): 0
Mean VAS pain score during illumination ([3]; Side A (test PDT)): 0.52
Mean VAS pain score during illumination ([3]; Side B (control PDT)): 3.57
Pain during illumination, test PDT side versus control side ([3]; substantially no pre-illumination gap versus 1 hour gap): drastically reduced
Compound: NCC(=O)CCC(=O)O [ALA, 5-aminolevulinic acid]
Clinical response, Difference (A − B) ([2]; Face, 30 min cohort): −1.7%
Clinical response (% reduction in AK counts at 3 months) ([2]; Face, 30 min cohort, Side A (test PDT, 30 min blue light)): 55.4%
Clinical response (% reduction in AK counts at 3 months) ([2]; Face, 30 min cohort, Side B (control PDT)): 57.1%
Clinical response, Difference (A − B) ([2]; Face, 45 min cohort): 1.1%
Clinical response (% reduction in AK counts at 3 months) ([2]; Face, 45 min cohort, Side A (test PDT, 45 min blue light)): 59.8%
Clinical response (% reduction in AK counts at 3 months) ([2]; Face, 45 min cohort, Side B (control PDT)): 58.6%
Clinical response, Difference (A − B) ([2]; Face, 60 min cohort): −3.8%
Clinical response (% reduction in AK counts at 3 months) ([2]; Face, 60 min cohort, Side A (test PDT, 60 min blue light)): 57.5%
Clinical response (% reduction in AK counts at 3 months) ([2]; Face, 60 min cohort, Side B (control PDT)): 61.2%
Clinical response, Difference (A − B) ([2]; Face, all patients): −1.4%
Clinical response (% reduction in AK counts at 3 months) ([2]; Face, all patients, Side A (test PDT, substantially no pre-illumination gap)): 57.7%
Clinical response (% reduction in AK counts at 3 months) ([2]; Face, all patients, Side B (control PDT, 1 hr pre-illumination gap, blue light 1000 sec)): 59.1%
Clinical response, Difference (A − B) ([2]; Scalp, 30 min cohort): −1.2%
Clinical response (% reduction in AK counts at 3 months) ([2]; Scalp, 30 min cohort, Side A (test PDT, 30 min blue light)): 44.8%
Clinical response (% reduction in AK counts at 3 months) ([2]; Scalp, 30 min cohort, Side B (control PDT)): 46.0%
Clinical response, Difference (A − B) ([2]; Scalp, 45 min cohort): 3%
Clinical response (% reduction in AK counts at 3 months) ([2]; Scalp, 45 min cohort, Side A (test PDT, 45 min blue light)): 41.2%
Clinical response (% reduction in AK counts at 3 months) ([2]; Scalp, 45 min cohort, Side B (control PDT)): 38.2%
Clinical response, Difference (A − B) ([2]; Scalp, 60 min cohort): 3.7%
Clinical response (% reduction in AK counts at 3 months) ([2]; Scalp, 60 min cohort, Side A (test PDT, 60 min blue light)): 45.2%
Clinical response (% reduction in AK counts at 3 months) ([2]; Scalp, 60 min cohort, Side B (control PDT)): 41.5%
Clinical response, Difference (A − B) ([2]; Scalp, all patients): 1.9%
Clinical response (% reduction in AK counts at 3 months) ([2]; Scalp, all patients, Side A (test PDT, substantially no pre-illumination gap)): 43.8%
Clinical response (% reduction in AK counts at 3 months) ([2]; Scalp, all patients, Side B (control PDT, 1 hr pre-illumination gap, blue light 1000 sec)): 41.9%
Clinical efficacy (lesion clearance), test PDT versus control PDT ([2]; face and scalp, 3 months, test of non-inferiority): nearly identical on both sides of the face and scalp; also recorded: statistically indistinguishable
Pain score (0-to-10 VAS) during illumination, Mean ([3]; SIDE B (control PDT), 30 min test PDT cohort): 1.0 and 7.3 and 7.0 and 4.0 and 3.0 (2×) and 4.7
Pain score (0-to-10 VAS) during illumination, Mean ([3]; SIDE B (control PDT), 45 min test PDT cohort): 3.7 (2×) and 3.0 and 2.7 and 1.7 and 4.3 and 5.0 and 1.3
Pain score (0-to-10 VAS) during illumination, Mean ([3]; SIDE B (control PDT), 60 min test PDT cohort): 0.7 and 6.3 and 4.3 and 1.0 and 3.7 (2×) and 6.7 and 0.3
Bleeding ([4]; DAY 1): 0, 0 percentage of patients
Blisters ([4]; DAY 1): 13, 13 percentage of patients
Burning ([4]; DAY 1): 65, 65 percentage of patients
Crusting ([4]; DAY 1): 9 percentage of patients
Itching ([4]; DAY 1): 43, 43 percentage of patients
Open sores ([4]; DAY 1): 0, 0 percentage of patients
Peeling ([4]; DAY 1): 4 percentage of patients
Redness ([4]; DAY 1): 91, 91 percentage of patients
Stinging ([4]; DAY 1): 65, 65 percentage of patients
Swelling ([4]; DAY 1): 26 percentage of patients
Pain Score Mean (0-10 visual-analog scale) ([4]; DAY 1, average of 23 patients): 3.0
Bleeding ([4]; DAY 2): 17 percentage of patients
Blisters ([4]; DAY 2): 4 percentage of patients
Burning ([4]; DAY 2): 52, 52 percentage of patients
Crusting ([4]; DAY 2): 9 percentage of patients
Itching ([4]; DAY 2): 74, 74 percentage of patients
